Our source for the IC50 values is US5801180A, “Quinazoline derivatives” (priority 1991, dated 1998).

Molecules are shown by their SMILES.

The assay concerns the target T1, cGMP-PDE prepared from the swine aeorta (Sus scrofa, UniProt A0A287B475).
T1 construct: The swine aeorta was sliced; from tissue; host or cells: swine aorta, 100000×g supernatant, DEAE-Toyopearl 650S fraction
The experiment in a line: Enzyme inhibiting action with the use of cGMP-PDE prepared from the swine aorta. The following applies: CaM-independent cGMP-PDE, 1 mM EGTA, 1 μM cGMP substrate, DMSO 4% or below. The format is biochemical. Put shortly: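 CaM-independent cGMP-PDE isolated from pig aorta supernatant by DEAE anion-exchange chromatography. Activity measured with 1 μM cGMP substrate in presence of 1 mM EGTA, following the Thompson method. Compounds added from DMSO, final DMSO 4% or below.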
For the molecule `COc1ccc(CNc2cc(N3CCC(C(=O)O)CC3)nc3ccc(C#N)cc23)cc1Cl` [Example 260, 2-(4-Carboxypiperidino)-4-(3-chloro-4-methoxybenzyl)amino-6-cyanoquinoline], the IC50 (usually the concentration that gives 50% inhibition) is 0.16 nM.

As for `O=C(O)C1CCN(c2nc(NCc3ccc4c(c3)OCO4)c3cccnc3n2)CC1` [Example 262], the IC50 came out at 880 nM.

`COc1nc2ccc(Cl)cc2n1Cc1ccc2c(c1)OCO2` [Example 266, 6-Chloro-2-methoxy-1-(3,4-methylenedioxybenzyl)benzimidazole] came in with an IC50 of 110 nM.

`Clc1ccc2nc(-n3ccnc3)n(Cc3ccc4c(c3)OCO4)c2c1` [Example 278, 6-Chloro-2-(imidazol-1-yl)-1-(3,4-methylenedioxybenzyl)benzimidazole] showed an IC50 of 250 nM.

The molecule `O=C(O)C1CCN(c2nc3ccc(Cl)cc3n2Cc2ccc3c(c2)OCO3)CC1` [Example 280, 2-(4-Carboxypiperidino)-6-chloro-1-(3,4-methylenedioxybenzyl)benzimidazole] returned a 50% inhibitory concentration (IC50) of 250 nM.

The molecule `O=C(O)C1CCN(c2nc(NCc3ccc4c(c3)OCO4)c3cc(Br)ccc3n2)CC1` [Example 376] yielded a half-inhibitory concentration (IC50) of 21 nM.
